Results published in patent US20250163056A1, “NONMUSCLE MYOSIN II INHIBITORS” (The University of Florida Research Foundation, Inc., priority 2018, published 2025).
Like-named read-outs stand apart in the source and are kept apart here.

Experiments:
[1] = test system: rodent behaviors; details: systemically administered
[2] = Photostability, percentage remaining undegraded under illumination or in the dark; details: for Photostability 4 hours: percentage remaining undegraded after 4 hours illumination; for Photostability 24 hours: percentage remaining undegraded after 24 hours illumination; for Photostability Dark (24 h): percentage remaining undegraded in the dark
[3] = molecular target: Rabbit skeletal myosin; assay: Skeletal muscle myosin II actin-activated ATPase assay; type: biochemical; details: 20 nM skeletal muscle myosin II; read-out: SKMMII KI
How it was run: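 NADH-coupled (PK/LDH) actin-activated ATPase at 25 °C with 20 nM rabbit skeletal myosin II, 10 μM F-actin, 1 mM ATP, 1 mM PEP, 220 μM NADH in MOPS pH 7.0, MgCl2, EGTA, BSA, DTT, 0.5% DMSO. NADH fluorescence followed 30 min; inhibitory constants from 16-point triplicate curves (top 50 uM), quadratic one-to-one fit.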

[4] = molecular target: Bovine cardiac myosin (Bos taurus (Bovine), UniProt Q9BE39); assay: Cardiac muscle myosin II actin-activated ATPase assay (NADH-coupled); type: biochemical; set-up: key to Ratio CMMII:NMII Ki/EC50: NMII-sel: no Ki value for cardiac myosin II could be determined; the compounds had no detectable inhibitory properties versus the cardiac myosin II; details: for CMMII/NMII Ratio: cardiac Ki relative to NMII EC50; for Ratio CMMII:NMII Ki/EC50: cardiac myosin II Ki over nonmuscle myosin II EC50
How it was run: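 NADH-coupled (PK/LDH) assay at 25° C: 300 nM bovine cardiac myosin, 10 μM rabbit F-actin, 1 mM ATP, 1 mM PEP, 220 μM NADH, MOPS pH 7.0, 0.5% DMSO. NADH fluorescence was followed for 30 min; Ki values came from 16-point triplicate data (top 50 uM) fitted to a quadratic one-to-one binding model.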

[5] = test system: hiPS cardiomyocytes (Cor.4U CMs); assay: Cardiac safety assay 1: beating parameters of cardiomyocytes (xCELLigence RTCA Cardio); type: cell-based, human; details: hiPS-derived cardiomyocytes
Experimental: The spontaneous contractions of cardiomyocytes (CMs) is measured label-free in real time using the ACEA xCELLigence RTCA Cardio instrument. All measurements are performed at 37° C. in a cell culture incubator, allowing for spontaneous beating of CMs at physiological conditions. Cor.4U CMs are seeded at 3×10^4 cells/well in 180 μl/well maintenance medium. Prior to seeding, a background impedance measurement (plate plus medium) is performed. The contraction of CMs involves cyclic modulation of cell morphology and adhesion inducing a delta change in impedance. From the cyclic changes in impedance a beating frequency, amplitude and effects on beating pattern can be calculated. Time point “0” (baseline) is recorded 10× for 20 seconds at 1 minute intervals. Thereafter, compounds and control (0.1% DMSO) are added to the wells and effects are measured 30 minutes later. Vehicle control is 0.1% DMSO and positive control is 100 nM isoproterenol. Compounds are tested at 0.1, 0.3, 1.0 and 3.0 uM. Data is collected at 5, 10, 15, 20 and 30 minutes, and 1, 4, 6, 12 and 24 hours post-incubation.

[6] = 300 nM cardiac myosin, 10 μM actin, 25° C., read-out: CMMII KI
[7] = cardiac muscle myosin II, read-out: CMMII Ki

Bovine cardiac myosin, sequence (Q9BE39 whole entry): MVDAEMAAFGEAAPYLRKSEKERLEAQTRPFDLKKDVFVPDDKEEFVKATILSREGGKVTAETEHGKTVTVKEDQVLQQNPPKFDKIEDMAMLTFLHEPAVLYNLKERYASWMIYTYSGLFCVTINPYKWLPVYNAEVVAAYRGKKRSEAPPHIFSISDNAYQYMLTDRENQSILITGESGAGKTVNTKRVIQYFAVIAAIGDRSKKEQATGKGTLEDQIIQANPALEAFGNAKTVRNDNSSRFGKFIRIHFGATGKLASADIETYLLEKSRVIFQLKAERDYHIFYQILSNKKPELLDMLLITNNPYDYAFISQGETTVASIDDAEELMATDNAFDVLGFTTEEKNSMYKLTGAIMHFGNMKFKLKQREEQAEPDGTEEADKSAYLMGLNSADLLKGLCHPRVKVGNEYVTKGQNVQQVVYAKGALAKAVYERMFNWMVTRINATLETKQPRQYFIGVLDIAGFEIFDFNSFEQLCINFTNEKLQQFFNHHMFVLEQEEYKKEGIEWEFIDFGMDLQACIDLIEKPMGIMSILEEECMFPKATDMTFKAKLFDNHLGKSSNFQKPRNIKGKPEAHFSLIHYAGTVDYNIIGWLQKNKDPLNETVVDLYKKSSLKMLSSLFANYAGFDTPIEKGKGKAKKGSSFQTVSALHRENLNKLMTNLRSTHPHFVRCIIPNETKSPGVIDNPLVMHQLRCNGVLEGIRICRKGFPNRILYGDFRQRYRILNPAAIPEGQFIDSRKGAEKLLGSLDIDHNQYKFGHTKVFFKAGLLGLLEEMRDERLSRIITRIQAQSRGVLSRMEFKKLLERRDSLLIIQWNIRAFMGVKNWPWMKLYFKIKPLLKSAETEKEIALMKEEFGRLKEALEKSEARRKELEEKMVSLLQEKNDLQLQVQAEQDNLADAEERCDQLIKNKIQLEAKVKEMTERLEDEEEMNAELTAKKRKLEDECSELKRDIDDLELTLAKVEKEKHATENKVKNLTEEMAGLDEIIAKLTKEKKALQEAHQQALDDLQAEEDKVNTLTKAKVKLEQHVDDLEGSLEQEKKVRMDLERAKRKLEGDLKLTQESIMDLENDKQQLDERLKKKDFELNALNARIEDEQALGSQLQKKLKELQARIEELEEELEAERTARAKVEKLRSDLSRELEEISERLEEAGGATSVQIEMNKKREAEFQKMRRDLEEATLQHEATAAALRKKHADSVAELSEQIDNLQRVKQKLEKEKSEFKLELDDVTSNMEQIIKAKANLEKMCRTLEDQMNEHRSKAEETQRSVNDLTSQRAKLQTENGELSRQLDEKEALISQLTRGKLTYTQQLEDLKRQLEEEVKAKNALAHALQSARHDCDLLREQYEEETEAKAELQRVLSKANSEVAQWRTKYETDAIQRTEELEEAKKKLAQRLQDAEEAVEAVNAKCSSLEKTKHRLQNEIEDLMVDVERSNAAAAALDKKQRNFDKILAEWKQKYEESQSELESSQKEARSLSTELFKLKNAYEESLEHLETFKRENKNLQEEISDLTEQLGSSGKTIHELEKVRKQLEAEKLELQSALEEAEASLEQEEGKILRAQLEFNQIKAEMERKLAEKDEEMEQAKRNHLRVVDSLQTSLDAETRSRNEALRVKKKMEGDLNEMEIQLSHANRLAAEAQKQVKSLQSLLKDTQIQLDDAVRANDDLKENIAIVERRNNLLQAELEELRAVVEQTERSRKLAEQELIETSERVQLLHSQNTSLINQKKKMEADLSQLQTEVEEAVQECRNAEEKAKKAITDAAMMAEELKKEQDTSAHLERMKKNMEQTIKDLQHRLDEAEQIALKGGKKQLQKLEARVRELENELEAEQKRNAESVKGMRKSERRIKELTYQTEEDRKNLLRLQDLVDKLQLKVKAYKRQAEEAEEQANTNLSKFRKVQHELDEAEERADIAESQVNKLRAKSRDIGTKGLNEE
Bovine cardiac myosin, sequence (P85100 whole entry partner): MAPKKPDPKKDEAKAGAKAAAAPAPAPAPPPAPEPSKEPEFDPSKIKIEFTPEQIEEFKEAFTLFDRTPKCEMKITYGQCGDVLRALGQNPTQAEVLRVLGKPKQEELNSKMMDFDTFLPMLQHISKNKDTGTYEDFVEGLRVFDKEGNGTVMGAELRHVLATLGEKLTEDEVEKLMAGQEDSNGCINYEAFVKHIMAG
Bovine cardiac myosin, sequence (Q3SZE5 whole entry partner): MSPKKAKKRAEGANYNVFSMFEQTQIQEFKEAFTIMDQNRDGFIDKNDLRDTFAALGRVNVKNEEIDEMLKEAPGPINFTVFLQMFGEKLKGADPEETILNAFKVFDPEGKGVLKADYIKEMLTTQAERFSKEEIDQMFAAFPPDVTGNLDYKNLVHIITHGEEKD

| Compound | effect in a broad panel of rodent behaviors [1] | Photostability 4 hours [2] [%] | Photostability 24 hours [2] [%] | Photostability Dark (24 h) [2] [%] | Ki [3] [µM] | Ki [4, 6] [µM] | CMMII/NMII Ratio [4] | Ki [4, 7] [µM] | Ratio CMMII:NMII Ki/EC50 [4] | Qualitative impact on contractility (e.g. Full = Complete inhibition of contraction) ([5]; 0.1 uM-1.0 uM) | Change in amplitude at 1 uM @ 15 min [5] | Qualitative impact on contractility (e.g. Full = Complete inhibition of contraction) ([5]; 3.0 uM) | Photostability 4 hours (4 h) [%] | Photostability 24 hours (24 h) [%] | Photostability Dark (24 h) [%] |
| --- | --- | --- | --- | --- | --- | --- | --- | --- | --- | --- | --- | --- | --- | --- | --- |
| Cc1ccc2c(c1)C(=O)C1(O)CCN(c3ccccc3)C1=N2 (racemic) [racemic Blebb] | no effect | – | – | – | – | – | – | – | – | – | – | – | – | – | – |
| Cc1ccc2c(c1)C(=O)[C@]1(O)CCN(c3cccc(Cl)c3)C1=N2 [BPN-0025059] | – | 96.1 | 48.6 | >99 | 22 | 120 | 9.25 | 47.2 | 23.5 | 0.1 uM-1.0 uM: No effect; 3.0 uM: | +1.1 ± 0.1% | Small effect | – | – | – |
| Cc1cccc(N2CC[C@@]3(O)C(=O)c4cc(C)ccc4N=C23)c1 [BPN-0025100] | – | 82.8 | 4.7 | 99.0 | 9.7 | 48 | 3.51 | 26.3 | 6.4 | 0.1 uM-1.0 uM: No effect; 3.0 uM: | −7.8 ± 1.3% | Small effect | – | – | – |
| Cc1cc(N2CC[C@@]3(O)C(=O)c4c(sc(C)c4C)NC23)ccc1C#N (stereo partly shown) [BPN-0026886] | – | – | – | – | 4.2 | 19 | – | – | 7.0 | – | – | – | >99 | 98.5 | >99 |
| Cc1cc2c(cc1C)C(=O)[C@]1(O)CCN(c3cnc4c(c3)OCCN4)C1=N2 [BPN-0028821] | – | 89.8 | 29.1 | 98.5 | 0.77 | 12 | – | – | 12.5 | – | – | – | – | – | – |
| Cc1ccc2cc(N3CC[C@@]4(O)C(=O)c5sc(C)cc5N=C34)ccc2n1 [BPN-0028863] | – | 98.8 | 94.7 | 99 | 2.8 | – | – | – | NMII-sel | – | – | – | – | – | – |
| CCc1cc(N2CC[C@@]3(O)C(=O)c4cc(C)c(C)cc4N=C23)ccn1 [BPN-0028864] | – | 97.4 | 88.4 | 98.4 | 12 | – | – | – | NMII-sel | – | – | – | – | – | – |
| Cc1cc2c(cc1C)C(=O)[C@]1(O)CCN(c3ccc4ncc(CN(C)C)cc4c3)C1=N2 [BPN-0028866] | – | 77.8 | 2.9 | 97.8 | 400 | – | – | – | NMII-sel | – | – | – | – | – | – |
| CCc1ccc2cc(N3CC[C@@]4(O)C(=O)c5cc(C)c(C)cc5N=C34)ccc2n1 [BPN-0028867] | – | 69.9 | 1 | 98.7 | 1.3 | – | – | – | NMII-sel | – | – | – | – | – | – |
| Cc1cc2c(cc1C)C(=O)[C@]1(O)CCN(c3ccc4nc(C)c(C)cc4c3)C1=N2 [BPN-0028868] | – | 46.7 | 43.3 | 98.9 | 0.23 | 24 | – | – | 31.6 | – | – | – | – | – | – |
| Cc1cc2c(cc1C)C(=O)[C@]1(O)CCN(c3ccc4nc(CN(C)C)ccc4c3)C1=N2 [BPN-0028897] | – | 82.8 | 5.4 | 98.4 | 110 | 300 | – | – | 33.3 | – | – | – | – | – | – |
| Cc1ccc2cc(N3CC[C@@]4(O)C(=O)c5cc(C)sc5N=C34)ccc2n1 [BPN-0028898] | – | 93.4 | 58.1 | 96.4 | 1.9 | 95 | – | – | 31.7 | – | – | – | – | – | – |
| Cc1cc2c(cc1C)C(=O)[C@]1(O)CCN(c3ccc4nc(N)ccc4c3)C1=N2 [BPN-0028899] | – | 70.8 | 29.7 | 97.8 | 3.8 | – | – | – | NMII-sel | – | – | – | – | – | – |
| CCc1nc2cc(N3CC[C@@]4(O)C(=O)c5cc(C)c(C)cc5N=C34)ccc2s1 [BPN-0028918] | – | 54.2 | 7.8 | >99 | 0.64 | 11 | – | – | 5.5 | – | – | – | – | – | – |
| Cc1cc2c(cc1C)C(=O)[C@]1(O)CCN(c3ccc4sc(C(C)C)nc4c3)C1=N2 [BPN-0028919] | – | 48.4 | <1 | 98.5 | 1.4 | – | – | – | NMII-sel | – | – | – | – | – | – |
| Cc1cc2c(cc1C)C(=O)[C@]1(O)CCN(c3cnc4c(c3)CCCC4)C1=N2 [BPN-0028920] | – | 36.6 | 2.5 | 98.4 | 3.9 | – | – | – | NMII-sel | – | – | – | – | – | – |
| Cc1cc2c(cc1C)C(=O)[C@]1(O)CCN(c3ccc4c(c3)OCCO4)C1=N2 [BPN-0028921] | – | 2.8 | 3.1 | 97.2 | 1 | 8.4 | – | – | 11.2 | – | – | – | – | – | – |
| Cc1cc2c(cc1C)C(=O)[C@]1(O)CCN(c3ccc4c(c3)NCCS4)C1=N2 [BPN-0028922] | – | 86.1 | 27.7 | 94.8 | 0.77 | 9.7 | – | – | 8.8 | – | – | – | – | – | – |
| Cc1cc2c(cc1C)C(=O)[C@]1(O)CCN(c3ccc4c(c3)CCCC4)C1=N2 [BPN-0028923] | – | 77.5 | 1 | 98.1 | 6 | 30 | – | – | 8.6 | – | – | – | – | – | – |
| Cc1cc2c(cc1C)C(=O)[C@]1(O)CCN(c3ccc4c(c3)OCCC4)C1=N2 [BPN-0028924] | – | 44.7 | <1 | 97.7 | 2.6 | 20 | – | – | 11.8 | – | – | – | – | – | – |
| Cc1cc2c(cc1C)C(=O)[C@]1(O)CCN(c3ccc4c(c3)NCCC4)C1=N2 [BPN-0028925] | – | 85.9 | 24.7 | 93.7 | 0.7 | 5.8 | – | – | 7.3 | – | – | – | – | – | – |
